Measured values taken from patent US20260284208A1, “SYSTEM” (Oxford University Innovation Limited, priority 2023, published 2026).

System: library of 8,380 IKZF3 degrons (ZF-eGFP/mCherry reporter) in Jurkat cells
Experiment: Pooled library screen (FACS, NGS, limma voom LogFC of positive vs negative read counts)
Type: cell-based, human
In short: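 Cells were lentivirally transduced at MOI <0.3, and mCherry+ cells were sorted 6 days later. Eight days after sorting, cells were treated with DMSO or thalidomide analog for 18 h at 37 °C. mCherry+GFPlow (DMSO-set gate, DAPI-excluded) and remaining cells were sorted, and degrons were PCR-amplified from gDNA and sequenced (>600× coverage, 3 biological replicates).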

O=C1CCC(N2C(=O)c3ccc(N4CCOCC4)cc3C2=O)C(=O)N1 (centres unmarked) [B03]
B03_logFC (Degron-ID 115, SEQ ID NO 3968, 46F_47A_49E_50V_52G_53A_54S_55F_67L): 2.732 | B03_logFC (Degron-ID 120, SEQ ID NO 4031, 46F_47A_49N_50I_52G_53A_54A_55F_67L): 2.638 | B03_logFC (Degron-ID 315, SEQ ID NO 3989, 46F_47C_49E_50I_52G_53A_54S_55F_67L): 2.703 | B03_logFC (Degron-ID 372, SEQ ID NO 3966, 46F_47C_49N_50I_52G_53A_54P_55F_67L): 2.733 | B03_logFC (Degron-ID 433, SEQ ID NO 4021, 46F_47C_49P_50I_52G_53A_54Q_55F_67L): 2.656 | B03_logFC (Degron-ID 434, SEQ ID NO 3957, 46F_47C_49P_50I_52G_53A_54R_55F_67L): 2.746 | B03_logFC (Degron-ID 435, SEQ ID NO 3984, 46F_47C_49P_50I_52G_53A_54S_55F_67L): 2.71 | B03_logFC (Degron-ID 977, SEQ ID NO 4017, 46F_47F_49D_50I_52G_53A_54V_55F_67L): 2.662 | B03_logFC (Degron-ID 1011, SEQ ID NO 3988, 46F_47F_49D_50V_52G_53A_54N_55F_67L): 2.704 | B03_logFC (Degron-ID 1015, SEQ ID NO 3971, 46F_47F_49D_50V_52G_53A_54S_55F_67L): 2.728 | B03_logFC (Degron-ID 1065, SEQ ID NO 3981, 46F_47F_49E_50V_52G_53A_54G_55F_67L): 2.716 | B03_logFC (Degron-ID 1080, SEQ ID NO 4003, 46F_47F_49N_50I_52G_53A_54A_55F_67L): 2.68 | B03_logFC (Degron-ID 1081, SEQ ID NO 4001, 46F_47F_49N_50I_52G_53A_54C_55F_67L): 2.686 | B03_logFC (Degron-ID 1097, SEQ ID NO 3956, 46F_47F_49N_50I_52G_53A_54V_55F_67L): 2.747 | B03_logFC (Degron-ID 1183, SEQ ID NO 4013, 46F_47F_49P_50V_52G_53A_54E_55F_67L): 2.668 | B03_logFC (Degron-ID 1188, SEQ ID NO 4025, 46F_47F_49P_50V_52G_53A_54K_55F_67L): 2.644 | B03_logFC (Degron-ID 1197, SEQ ID NO 3982, 46F_47F_49P_50V_52G_53A_54V_55F_67L): 2.716 | B03_logFC (Degron-ID 1267, SEQ ID NO 3977, 46F_47G_49E_50I_52G_53A_54I_55F_67L): 2.719 | B03_logFC (Degron-ID 1273, SEQ ID NO 4024, 46F_47G_49E_50I_52G_53A_54Q_55F_67L): 2.644 | B03_logFC (Degron-ID 1314, SEQ ID NO 3964, 46F_47G_49E_50V_52G_53A_54R_55F_67L): 2.737 | B03_logFC (Degron-ID 1393, SEQ ID NO 4023, 46F_47G_49P_50I_52G_53A_54Q_55F_67L): 2.648 | B03_logFC (Degron-ID 1433, SEQ ID NO 4022, 46F_47G_49P_50V_52G_53A_54Q_55F_67L): 2.653 | B03_logFC (Degron-ID 1513, SEQ ID NO 4030, 46F_47H_49E_50I_52G_53A_54Q_55F_67L): 2.639 | B03_logFC (Degron-ID 1515, SEQ ID NO 4006, 46F_47H_49E_50I_52G_53A_54S_55F_67L): 2.675 | B03_logFC (Degron-ID 1555, SEQ ID NO 4029, 46F_47H_49E_50V_52G_53A_54S_55F_67L): 2.639 | B03_logFC (Degron-ID 1621, SEQ ID NO 4027, 46F_47H_49P_50I_52G_53A_54C_55F_67L): 2.643 | B03_logFC (Degron-ID 1751, SEQ ID NO 3952, 46F_47I_49E_50I_52G_53A_54N_55F_67L): 2.753 | B03_logFC (Degron-ID 1754, SEQ ID NO 4020, 46F_47I_49E_50I_52G_53A_54R_55F_67L): 2.656 | B03_logFC (Degron-ID 1755, SEQ ID NO 3970, 46F_47I_49E_50I_52G_53A_54S_55F_67L): 2.728 | B03_logFC (Degron-ID 1785, SEQ ID NO 4016, 46F_47I_49E_50V_52G_53A_54G_55F_67L): 2.664 | B03_logFC (Degron-ID 1865, SEQ ID NO 4014, 46F_47I_49P_50I_52G_53A_54G_55F_67L): 2.667 | B03_logFC (Degron-ID 1871, SEQ ID NO 3960, 46F_47I_49P_50I_52G_53A_54N_55F_67L): 2.742 | B03_logFC (Degron-ID 1913, SEQ ID NO 3962, 46F_47I_49P_50V_52G_53A_54Q_55F_67L): 2.739 | B03_logFC (Degron-ID 1915, SEQ ID NO 3965, 46F_47I_49P_50V_52G_53A_54S_55F_67L): 2.736 | B03_logFC (Degron-ID 2392, SEQ ID NO 4011, 46F_47L_49P_50V_52G_53A_54P_55F_67L): 2.671 | B03_logFC (Degron-ID 2957, SEQ ID NO 3986, 46F_47Q_49E_50I_52G_53A_54V_55F_67L): 2.708 | B03_logFC (Degron-ID 2981, SEQ ID NO 4000, 46F_47Q_49E_50V_52G_53A_54C_55F_67L): 2.687 | B03_logFC (Degron-ID 2996, SEQ ID NO 4026, 46F_47Q_49E_50V_52G_53A_54T_55F_67L): 2.643 | B03_logFC (Degron-ID 2997, SEQ ID NO 3951, 46F_47Q_49E_50V_52G_53A_54V_55F_67L): 2.756 | B03_logFC (Degron-ID 3073, SEQ ID NO 3979, 46F_47Q_49P_50I_52G_53A_54Q_55F_67L): 2.718 | B03_logFC (Degron-ID 3076, SEQ ID NO 3959, 46F_47Q_49P_50I_52G_53A_54T_55F_67L): 2.742 | B03_logFC (Degron-ID 3115, SEQ ID NO 3978, 46F_47Q_49P_50V_52G_53A_54S_55F_67L): 2.718 | B03_logFC (Degron-ID 3432, SEQ ID NO 3998, 46F_47S_49E_50I_52G_53A_54P_55F_67L): 2.688 | B03_logFC (Degron-ID 3540, SEQ ID NO 3999, 46F_47S_49P_50I_52G_53A_54A_55F_67L): 2.688 | B03_logFC (Degron-ID 3791, SEQ ID NO 4035, 46F_47T_49P_50I_52G_53A_54N_55F_67L): 2.632 | B03_logFC (Degron-ID 3833, SEQ ID NO 4034, 46F_47T_49P_50V_52G_53A_54Q_55F_67L): 2.635 | B03_logFC (Degron-ID 3835, SEQ ID NO 3974, 46F_47T_49P_50V_52G_53A_54S_55F_67L): 2.722 | B03_logFC (Degron-ID 3953, SEQ ID NO 3961, 46F_47V_49E_50V_52G_53A_54Q_55F_67L): 2.742 | B03_logFC (Degron-ID 4065, SEQ ID NO 4015, 46F_47V_49P_50V_52G_53A_54G_55F_67L): 2.665 | B03_logFC (Degron-ID 4087, SEQ ID NO 3963, 46F_47W_49D_50I_52G_53A_54I_55F_67L): 2.738
